Reference: PubChem BioAssay (NCI)
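Exposure lasted 48 hours, with cells grown in 96-well plates and compounds tested at five concentrations. GI50 marks 50% less growth. TGI is the concentration that stops growth completely.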

Assays:
Assay in all cases: NCI tumour cell line growth inhibition, 48 h
UACC-62 melanoma = test system: UACC-62 melanoma
SR leukemia = test system: SR leukemia
UO-31 renal = test system: UO-31 renal
SK-MEL-2 melanoma = test system: SK-MEL-2 melanoma
LOX IMVI melanoma = test system: LOX IMVI melanoma
IGROV1 ovarian = test system: IGROV1 ovarian
SK-MEL-28 melanoma = test system: SK-MEL-28 melanoma
MCF7 breast = test system: MCF7 breast
HOP-92 NSCLC = test system: HOP-92 NSCLC
CAKI-1 renal = test system: CAKI-1 renal

Compound | TGI (UACC-62 melanoma) [µM] | TGI (SR leukemia) [µM] | TGI (UO-31 renal) [µM] | TGI (SK-MEL-2 melanoma) [µM] | TGI (LOX IMVI melanoma) [µM] | TGI (IGROV1 ovarian) [µM] | TGI (SK-MEL-28 melanoma) [µM] | TGI (MCF7 breast) [µM] | GI50 (HOP-92 NSCLC) [µM] | TGI (HOP-92 NSCLC) [µM] | GI50 (UACC-62 melanoma) [µM] | GI50 (SR leukemia) [µM] | GI50 (UO-31 renal) [µM] | GI50 (SK-MEL-2 melanoma) [µM] | GI50 (CAKI-1 renal) [µM] | TGI (CAKI-1 renal) [µM] | GI50 (LOX IMVI melanoma) [µM] | GI50 (IGROV1 ovarian) [µM] | GI50 (SK-MEL-28 melanoma) [µM] | GI50 (MCF7 breast) [µM]
CS(=O)(=O)CC(=O)c1ccccc1 | > 100 | > 100 | > 100 | > 100 | > 100 | > 100 | > 100 | > 100 | – | – | – | – | – | – | – | – | – | – | – | –
NC(N)=N/N=C/c1ccc(-c2ccc(-c3cc(Cl)cc(Cl)c3)s2)cc1 | 3.72 | 1.73 | 2.97 | 4.77 | 3.42 | 3.36 | 3.51 | 3.07 | 1.41 | 3.13 | 1.85 | 0.326 | 1.5 | 2.08 | 1.58 | 3.31 | 1.65 | 1.68 | 1.8 | 1.1
Cc1cc(N(CCCl)CCCl)ccc1C=Nc1ccc2ccccc2c1 | 28.3 | > 100 | > 100 | 98 | > 100 | > 100 | > 100 | > 100 | 11.8 | 61.1 | 2.45 | 4.08 | 8.71 | 40 | 1.51 | > 100 | 22.1 | 28.5 | > 100 | 2.36
Cn1cc(C2=C(c3cn(C)c4ccccc34)C(=O)NC2=O)c2ccccc21 | > 25 | > 25 | > 25 | > 14 | > 25 | > 25 | > 25 | > 25 | 1.45 | > 7.23 | 2.24 | 0.248 | 2.49 | 0.894 | 1.2 | > 25 | 1.8 | 11.7 | 3.71 | 0.72
O=c1ssc(Cl)c1Cl | > 10 | > 10 | > 6.86 | > 10 | > 10 | > 10 | > 10 | > 10 | – | > 10 | – | – | – | – | – | > 10 | – | – | – | –
O=C(c1ccco1)c1c(C(F)(F)F)n([O-])c2ccc(Cl)cc2[n+]1=O | 1.99 | 0.574 | 2.98 | 9.78 | 0.287 | – | 5.71 | – | – | – | 0.574 | 0.204 | 1.57 | 1.76 | 0.961 | 4.21 | 0.0951 | 0.404 | 2.04 | 0.443
CC(C)(C)c1c2c(c(C(C)(C)C)c3c1OCN(Cc1ccccc1)C3)OCN(Cc1ccccc1)C2 | 38.7 | 53.2 | 35.4 | 51.5 | 31.5 | 45.1 | > 100 | 61.6 | – | 28.1 | – | – | – | – | – | > 100 | – | – | – | –
CC(=O)Nc1ccc(COC(O)CN2CCCCC2)cc1[N+](=O)[O-] (stereo unspecified) | > 100 | > 100 | > 100 | > 100 | – | > 100 | > 100 | > 100 | – | > 100 | – | – | – | – | – | > 100 | – | – | – | –
COc1ccc2nc3cc(Cl)ccc3c(Sc3ccc([N+](=O)[O-])cc3)c2c1 | > 100 | > 10 | > 100 | > 100 | > 100 | > 100 | > 100 | – | > 100 | > 100 | > 100 | – | > 100 | > 100 | > 100 | > 100 | > 100 | > 100 | > 100 | –
N#C[Se]CCCNS(=O)(=O)C1CC2C=CC1C2 (stereo unspecified) | 3.38 | > 100 | 1.43 | 6.15 | 0.376 | 1.65 | 2.77 | 5.55 | 1.17 | 2.7 | 1.59 | 0.57 | 0.338 | 2 | 0.416 | 1.59 | 0.186 | 0.383 | 0.486 | 0.588
CN1CCN(C)C12C=CC=CC21CC1 | > 100 | > 100 | > 100 | > 100 | > 100 | > 100 | – | – | – | > 100 | – | – | – | – | – | > 100 | – | – | – | –
CN(C)c1ccc(/C=C/C2=[N+](C)c3ccccc3C2(C)C)cc1 | 19.2 | 13.9 | 83.3 | 16.8 | 10.6 | > 100 | 18 | 8.11 | 1.8 | 9.03 | 1.36 | 0.13 | 2.61 | 1.61 | 4.69 | > 100 | 0.339 | 2.19 | 1.03 | 0.382
O=c1oc2ccc(Br)cc2c(=O)n1-c1ccc(I)cc1F | 0.886 | 21.9 | 1.22 | 0.791 | 2.94 | 18.9 | 1.75 | 5.87 | 0.164 | 0.492 | 0.264 | 0.417 | 0.24 | 0.252 | 0.229 | 1.16 | 0.393 | 0.378 | 0.347 | 0.709
COc1cc(C(=O)Nc2cc(OC)c3ccn(C)c3c2)cc2c1C[C@]1(C)CC[C@@H](O)C(C)(C)[C@H]1O2 | 1.31 | > 100 | 1.17 | 4.48 | 10.1 | > 100 | 37.1 | 15.1 | 0.593 | 6.03 | 0.257 | 0.0837 | 0.0988 | 0.323 | – | – | 1.01 | 1.7 | 1.77 | 0.612
Cc1ccc2c(c1)S(=O)(=O)c1ccc3ccccc3c1N2 | > 100 | 69.5 | > 100 | > 100 | > 100 | > 100 | > 100 | > 100 | – | > 100 | – | – | – | – | – | > 100 | – | – | – | –
Oc1cc2ccccc2c(-c2c(O)c(O)cc3ccccc23)c1O | 4.23 | > 100 | 6.41 | 15.5 | 8.57 | 3.4 | 20.7 | 13 | 1.87 | 16.3 | 1.26 | 0.912 | 0.512 | 2.74 | 0.852 | 6.55 | 0.939 | 0.273 | 3.37 | 0.228

Compound | TGI (UACC-62 melanoma) [µM] | TGI (SR leukemia) [µM] | TGI (UO-31 renal) [µM] | TGI (SK-MEL-2 melanoma) [µM] | TGI (LOX IMVI melanoma) [µM] | TGI (IGROV1 ovarian) [µM] | TGI (SK-MEL-28 melanoma) [µM] | TGI (MCF7 breast) [µM] | GI50 (HOP-92 NSCLC) [µM] | TGI (HOP-92 NSCLC) [µM] | GI50 (UACC-62 melanoma) [µM] | GI50 (SR leukemia) [µM] | GI50 (UO-31 renal) [µM] | GI50 (SK-MEL-2 melanoma) [µM] | GI50 (CAKI-1 renal) [µM] | TGI (CAKI-1 renal) [µM] | GI50 (LOX IMVI melanoma) [µM] | GI50 (IGROV1 ovarian) [µM] | GI50 (SK-MEL-28 melanoma) [µM] | GI50 (MCF7 breast) [µM]
CC(=O)Oc1ccc(/C(=C(\C)c2ccc(Cl)cc2)c2ccc(OCCN3CCCCC3)cc2)cc1 | 3.73 | 3.06 | 3.09 | 3.56 | 3.01 | 5.14 | 3.89 | 2.55 | 1.64 | 4.42 | 1.86 | 0.739 | 1.59 | 1.85 | – | – | 1.65 | 2.35 | 2.01 | –
COc1cc(-c2cc(-c3cc(OC)c(OC)c(OC)c3)nc3nc(N)[nH]c(=O)c23)ccc1Oc1ccnc2cc(Cl)ccc12 | 25.2 | 29.6 | > 100 | 7.68 | 19.8 | > 100 | > 100 | > 100 | – | – | 3.55 | 0.468 | 3.45 | 2.25 | 2.7 | > 100 | 1.27 | 4.49 | 4.75 | 0.762
Cc1ccc(S(=O)OCC23CC4CC(CC(C4)C2)C3)cc1 (stereo unspecified) | > 100 | > 100 | > 100 | – | > 100 | > 100 | > 100 | – | – | > 100 | – | – | – | – | – | > 100 | – | – | – | –
OCc1ccc(N2CCc3ccccc3C2)cc1Cl | 0.144 | > 76.4 | 55.8 | – | > 100 | < 0.0281 | > 82.9 | 55.3 | 0.0448 | 9.28 | < 0.01 | 21.9 | 8.28 | – | 0.568 | 14.1 | 31.6 | < 0.0155 | 23 | < 0.01
NCOC(=O)Cc1ccc(Br)cc1 | > 100 | > 100 | > 100 | > 100 | > 100 | > 100 | > 100 | > 100 | – | > 100 | – | – | – | – | – | – | – | – | – | –
CCN1Cc2nc3sc(C)c(C)c3c(=O)n2C=C1C | 24.7 | 8.49 | > 100 | > 100 | 17.1 | – | 21.3 | 53.3 | 6.2 | 46.4 | 5.83 | 1.58 | 5.29 | 21.1 | 11.2 | 53.5 | 4.64 | – | 6.65 | 3.94
CC(C)NC(=O)CCN(C(=O)O)S(=O)(=O)c1ccc(NC(=O)c2ccccc2)cc1 | > 82.7 | > 83 | > 100 | > 100 | > 61.7 | > 100 | > 100 | – | – | > 100 | – | – | – | – | – | > 100 | – | – | – | –
COC1=CC(c2ccc[nH]2)=N/C1=C\c1[nH]c(C)c(C(=O)CCCCC(=O)Oc2ccc3c(c2)CCC2C3CC[C@]3(C)[C@@H](O)CC[C@@H]23)c1C (stereo partly specified) | > 100 | > 100 | > 100 | > 100 | – | > 100 | > 100 | > 100 | 3.3 | 29.2 | 3.58 | 3.21 | 5.08 | 9.88 | 5.45 | > 100 | – | 31.1 | > 100 | 0.863
O=C1OCC2=C1C(c1ccc(Cl)c(Cl)c1)c1cc3c(cc1N2CCO)CCC3 (stereo unspecified) | 8.6 | 16.2 | 21.2 | 6.89 | 10.3 | 17.8 | 11.7 | 7.2 | – | – | 0.215 | 0.348 | 0.237 | 0.192 | 0.145 | 7.89 | 0.303 | 0.555 | 0.323 | 0.157
Cc1ccc(NC(=O)/C(Cl)=C(/Cl)C(=O)O)cc1 | 29.7 | 53.6 | 31.8 | 37.6 | 30.9 | 61.1 | 33 | – | – | 32.6 | – | – | – | – | – | 31.1 | – | – | – | –
COc1ccc(C2=NN(C(=O)c3cc(OC)c(OC)c(OC)c3)C(c3ccc(N(C)C)cc3)C2)cc1 (stereo unspecified) | > 100 | – | > 100 | > 100 | > 100 | > 100 | > 59.5 | – | 0.886 | > 100 | 0.496 | 0.426 | 0.558 | 83.5 | – | – | 0.549 | 0.739 | 0.511 | 0.318
O=C(COC(=O)c1cccc2c(=O)c3ccccc3[nH]c12)Nc1ccc(C(=O)O)cc1 | > 100 | > 100 | > 100 | – | > 10 | > 100 | > 100 | – | – | > 100 | – | – | – | – | – | > 100 | – | – | – | –
COc1ccc(C2C=C(c3ccc4c(c3)OCO4)Oc3c2c(=O)oc2ccccc32)cc1OC (stereo unspecified) | > 100 | 0.594 | > 100 | – | > 100 | > 100 | > 100 | > 100 | – | > 73.1 | – | – | – | – | – | > 100 | – | – | – | –
CC1=CC(N2C(=O)C(C)=CC2O)NC1=O (stereo unspecified) | – | > 100 | > 100 | > 100 | > 100 | – | > 100 | – | – | > 100 | – | – | – | – | – | > 100 | – | – | – | –
CC(=O)c1cc(C(=O)c2ccc3c(c2)Sc2ccccc2N3)c2cc(C)ccn12 | – | > 100 | > 100 | > 100 | > 100 | > 100 | > 100 | > 100 | > 100 | > 100 | – | 0.0386 | 0.0515 | 81.4 | 0.053 | > 100 | 0.0906 | 0.122 | 6.79 | 0.0345
